Source: PubChem BioAssay (NCI)
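Exposure lasted 48 hours, with cells grown in 96-well plates and compounds tested at five concentrations. The concentration for 50% growth inhibition is given as GI50. TGI marks complete inhibition of growth.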

How the values were obtained:
Assay in all cases: growth of human tumour cells (NCI), 48 h
NCI-H460 lung = system: NCI-H460 lung
CCRF-CEM leukemia = system: CCRF-CEM leukemia
EKVX NSCLC = system: EKVX NSCLC
NCI-H522 lung = system: NCI-H522 lung
TK-10 renal = system: TK-10 renal
NCI-H226 lung = system: NCI-H226 lung
SK-MEL-5 melanoma = system: SK-MEL-5 melanoma
K-562 leukemia = system: K-562 leukemia
HCT-15 colon = system: HCT-15 colon
SNB-75 CNS = system: SNB-75 CNS

| SMILES | GI50 (NCI-H460 lung) | TGI (NCI-H460 lung) | GI50 (CCRF-CEM leukemia) | TGI (CCRF-CEM leukemia) | GI50 (EKVX NSCLC) | TGI (EKVX NSCLC) | GI50 (NCI-H522 lung) | TGI (NCI-H522 lung) | GI50 (TK-10 renal) | TGI (TK-10 renal) | GI50 (NCI-H226 lung) | TGI (NCI-H226 lung) | GI50 (SK-MEL-5 melanoma) | TGI (SK-MEL-5 melanoma) | GI50 (K-562 leukemia) | TGI (K-562 leukemia) | GI50 (HCT-15 colon) | TGI (HCT-15 colon) | GI50 (SNB-75 CNS) | TGI (SNB-75 CNS) |
| --- | --- | --- | --- | --- | --- | --- | --- | --- | --- | --- | --- | --- | --- | --- | --- | --- | --- | --- | --- | --- |
| CC1(C)C(=O)/C(=C\c2ccco2)C[C@]2(C)[C@H]3CC=C4[C@@H]5C[C@](C)(C(=O)O)CC[C@]5(C)CC[C@@]4(C)[C@]3(C)CC[C@@H]12 | 5.45 µM | 20.9 µM | 5.9 µM | 32.6 µM | 4.63 µM | 17.3 µM | 9.26 µM | 25.6 µM | 13.1 µM | 36.7 µM | 9.92 µM | 37 µM | 10.5 µM | 22.5 µM | 5.17 µM | 93 µM | 5.26 µM | 18.8 µM | 24.6 µM | > 100 µM |
| CCCCc1cc(O)ccc1O | 39 µM | > 100 µM | 2.79 µM | 60.6 µM | 41.9 µM | > 100 µM | 2.28 µM | 6.97 µM | 17.9 µM | 42.8 µM | 48.8 µM | > 100 µM | 58.3 µM | > 100 µM | 10.3 µM | > 100 µM | 28.2 µM | > 100 µM | 14.1 µM | > 100 µM |
| CN(C)CCNC(=O)c1cc([N+](=O)[O-])cc2ccc(-c3ccccc3)nc12 |  | 12.8 µM |  | 13.6 µM |  | > 71.4 µM |  | 17.2 µM |  | 95.5 µM |  | 11.8 µM |  | 11.8 µM |  | 54.1 µM |  | > 56.6 µM |  | 23.8 µM |
| NC(=O)c1ccccc1NC(=O)C(=O)C(c1cnc2ccc([N+](=O)[O-])cc2n1)[N+](=O)[O-] (stereo not given) |  | > 100 µM |  | > 100 µM |  | > 100 µM |  | > 100 µM |  | > 100 µM |  | > 100 µM |  | > 100 µM |  | > 100 µM |  | > 100 µM |  | > 100 µM |
| COc1ccc(N=Cc2ccc(N(CCC#N)CCC#N)cc2)cc1 |  | > 100 µM |  | > 100 µM |  | > 100 µM |  | > 100 µM |  | > 89 µM |  | > 100 µM |  | > 100 µM |  | > 100 µM |  | > 100 µM |  | > 100 µM |
| COc1cccc2c1C1=CC(=O)CCC1C(C)(C)O2 (stereo not given) |  | > 100 µM |  | > 100 µM |  | > 100 µM |  | > 100 µM |  | > 100 µM |  | > 100 µM |  | > 100 µM |  | > 100 µM |  | > 100 µM |  | > 100 µM |
| CCc1ccc(C2=C(O)C(=O)C(c3ccc(CC)cc3)=C(O)C2=O)cc1 | 2.06 µM | 5 µM | 1.37 µM | 5.72 µM | 2.35 µM | 8.64 µM | 1.51 µM | 4.61 µM | 2.26 µM | 8.61 µM | 1.9 µM | 7.34 µM | 1.89 µM | 3.86 µM | 1.34 µM | 3.61 µM | 2.23 µM | 7.5 µM | 1.37 µM | 4.19 µM |
| CCOC(=O)/C=C/c1ccc(C(=O)OCC)[nH]1 | 3.08 µM | 14.5 µM | 6.04 µM | > 100 µM | 9.89 µM | > 100 µM | 2.69 µM | 8.89 µM | 6.05 µM | > 100 µM | 15.4 µM | > 100 µM | 2.34 µM | 8.01 µM | 0.649 µM | > 100 µM | 3.11 µM | > 100 µM | 2.82 µM | 35.9 µM |
